Structures are written as SMILES.

A short description of the data set: Hepatic Stability Assay (in vitro half-life method). It counts as in vitro ADME. On the set-up: dose or concentration left out as unconfirmed. Conditions: pooled cryopreserved hepatocytes, 37° C., 1×10^6 cells/mL, 0-6 hours, LC-MS/MS, 39.5 hours is the maximum detectable half life, read-out: t½ (converted). On the procedure: Hepatic Stability Assay The metabolic stability of certain compounds disclosed herein was assessed in vitro in pooled cryopreserved hepatocytes using the in vitro half-life method. Incubations were at 37° C. and final concentrations in the incubations were 1×10^6 cells/mL and […] test concentration of the compound. Aliquots were sequentially removed after 0, 1, 3 and 6 hours and analyzed by LC-MS/MS. In vitro half-life was determined by measuring the rate of disappearance of the compound and then scaled to predicted hepatic clearance using the well-stirred model. […] As such, compounds having a value of 39.5 may have a half live that exceeds 39.5 hours.
Turning to `Cc1c(C(=O)C(=O)NC2(C)CS(=O)(=O)C2)c2n(c1C(=O)Nc1ccc(F)c(Cl)c1)[C@@H]1C[C@@H]1C2` [Example 71, (1aR,6aR)—N-(3-chloro-4-fluorophenyl)-4-methyl-5-(2-((3-methyl-1,1-dioxidothietan-3-yl)amino)-2-oxoacetyl)-1,1a,6,6a-tetrahydrocyclopropa[b]pyrrolizine-3-carboxamide], the half-life was 438 min.
For `Cc1c(C(=O)C(=O)NC2(C)CS(=O)(=O)C2)c2n(c1C(=O)Nc1cc(F)c(F)c(F)c1)[C@@H]1C[C@@H]1C2` [Example 73, (1aR,6aR)-4-methyl-5-(2-((3-methyl-1,1-dioxidothietan-3-yl)amino)-2-oxoacetyl)-N-(3,4,5-trifluorophenyl)-1,1a,6,6a-tetrahydrocyclopropa[b]pyrrolizine-3-carboxamide], the half-life was 966 min.
Regarding `Cc1c(C(=O)C(=O)NC2(c3c[nH]nn3)CC2)c2n(c1C(=O)Nc1cc(F)cc(F)c1)CCC2` [Example 76, 7-(2-((1-(1H-1,2,3-triazol-4-yl)cyclopropyl)amino)-2-oxoacetyl)-N-(3,5-difluorophenyl)-6-methyl-2,3-dihydro-1H-pyrrolizine-5-carboxamide], the half-life was 1170 min.
As to `Cc1c(C(=O)C(=O)NC2(c3c[nH]nn3)CC(F)(F)C2)c2n(c1C(=O)Nc1ccnc(C(F)F)c1)[C@@H]1C[C@@H]1C2` [Example 78, (1aR,6aR)-5-(2-((3,3-difluoro-1-(1H-1,2,3-triazol-4-yl)cyclobutyl)amino)-2-oxoacetyl)-N-(2-(difluoromethyl)pyridin-4-yl)-4-methyl-1,1a,6,6a-tetrahydrocyclopropa[b]pyrrolizine-3-carboxamide], the half-life is 288 min.
The figure for `Cc1c(C(=O)C(=O)NC2(c3c[nH]nn3)CC2)c2n(c1C(=O)Nc1ccc(F)c(C#N)c1)[C@@H]1C[C@@H]1C2` [Example 79, (1aR,6aR)-5-(2-((1-(1H-1,2,3-triazol-4-yl)cyclopropyl)amino)-2-oxoacetyl)-N-(3-cyano-4-fluorophenyl)-4-methyl-1,1a,6,6a-tetrahydrocyclopropa[b]pyrrolizine-3-carboxamide] is 894 min; for `Cc1c(C(=O)C(=O)NC2(c3c[nH]nn3)CC2)c2n(c1C(=O)Nc1ccc(F)c(F)c1)[C@@H]1C[C@@H]1C2` [Example 81, (1aR,6aR)-5-(2-((1-(1H-1,2,3-triazol-4-yl)cyclopropyl)amino)-2-oxoacetyl)-N-(3,4-difluorophenyl)-4-methyl-1,1a,6,6a-tetrahydrocyclopropa[b]pyrrolizine-3-carboxamide] it is 480 min.
The figure for `Cc1c(C(=O)C(=O)NC2(c3cnn[nH]3)CC2)c2n(c1C(=O)Nc1cc(Cl)ccc1F)CCC2` [Example 86, 7-(2-((1-(1H-1,2,3-triazol-5-yl)cyclopropyl)amino)-2-oxoacetyl)-N-(5-chloro-2-fluorophenyl)-6-methyl-2,3-dihydro-1H-pyrrolizine-5-carboxamide] is 564 min; for `Cc1c(C(=O)C(=O)NC2(c3c[nH]nn3)CC2)c2n(c1C(=O)Nc1cc(Cl)c(F)cc1F)CCC2` [Example 91, 7-(2-((1-(1H-1,2,3-triazol-4-yl)cyclopropyl)amino)-2-oxoacetyl)-N-(5-chloro-2,4-difluorophenyl)-6-methyl-2,3-dihydro-1H-pyrrolizine-5-carboxamide] it is 1180 min; for `CNC(=O)C1(NC(=O)C(=O)c2c(C)c(C(=O)Nc3ccc(F)cc3)n3c2C[C@H]2C[C@H]23)CC(F)(F)C1` [Example 95, (1aR,6aR)-5-(2-((3,3-difluoro-1-(methylcarbamoyl)cyclobutyl)amino)-2-oxoacetyl)-N-(4-fluorophenyl)-4-methyl-1,1a,6,6a-tetrahydrocyclopropa[b]pyrrolizine-3-carboxamide] it is 1730 min.
The figure for `CNC(=O)C1(NC(=O)C(=O)c2c(C)c(C(=O)Nc3ccc(F)c(F)c3)n3c2C[C@H]2C[C@H]23)CC(F)(F)C1` [Example 96, (1aR,6aR)-5-(2-((3,3-difluoro-1-(methylcarbamoyl)cyclobutyl)amino)-2-oxoacetyl)-N-(3,4-difluorophenyl)-4-methyl-1,1a,6,6a-tetrahydrocyclopropa[b]pyrrolizine-3-carboxamide] is 1360 min; for `Cc1c(C(=O)C(=O)NC2(c3cn(C)nn3)CC2)c2n(c1C(=O)Nc1ccc(F)c(Cl)c1)CCC2` [Example 98, N-(3-chloro-4-fluorophenyl)-6-methyl-7-(2-((1-(1-methyl-1H-1,2,3-triazol-4-yl)cyclopropyl)amino)-2-oxoacetyl)-2,3-dihydro-1H-pyrrolizine-5-carboxamide] it is 888 min.
With `Cc1c(C(=O)C(=O)NC2(c3cnn[nH]3)CC2)c2n(c1C(=O)Nc1ccc(F)cc1)[C@@H]1C[C@@H]1C2` [Example 99, (1aR,6aR)-5-(2-((1-(1H-1,2,3-triazol-5-yl)cyclopropyl)amino)-2-oxoacetyl)-N-(4-fluorophenyl)-4-methyl-1,1a,6,6a-tetrahydrocyclopropa[b]pyrrolizine-3-carboxamide], the half-life is 576 min.
The figure for `Cc1c(C(=O)C(=O)NC2(c3c[nH]nn3)CC2)c2n(c1C(=O)Nc1cc(F)cc(Cl)c1)CCC2` [Example 101, 7-(2-((1-(1H-1,2,3-triazol-4-yl)cyclopropyl)amino)-2-oxoacetyl)-N-(3-chloro-5-fluorophenyl)-6-methyl-2,3-dihydro-1H-pyrrolizine-5-carboxamide] is 420 min; for `Cc1c(C(=O)C(=O)NC2(c3c[nH]nn3)CC2)c2n(c1C(=O)Nc1cccc(C(F)F)c1)CCC2` [Example 103, 7-(2-((1-(1H-1,2,3-triazol-4-yl)cyclopropyl)amino)-2-oxoacetyl)-N-(3-(difluoromethyl)phenyl)-6-methyl-2,3-dihydro-1H-pyrrolizine-5-carboxamide] it is 510 min.
Under `Cc1c(C(=O)C(=O)NC2(CO)CC(F)(F)C2)c2n(c1C(=O)Nc1ccc(F)c(Cl)c1)CCC2` [Example 117, N-(3-chloro-4-fluorophenyl)-7-(2-((3,3-difluoro-1-(hydroxymethyl)cyclobutyl)amino)-2-oxoacetyl)-6-methyl-2,3-dihydro-1H-pyrrolizine-5-carboxamide] stands 630 min; under `Cc1c(C(=O)C(=O)NC2(CO)CC(F)(F)C2)c2n(c1C(=O)Nc1ccc(F)c(F)c1)CCC2` [Example 118, 7-(2-((3,3-difluoro-1-(hydroxymethyl)cyclobutyl)amino)-2-oxoacetyl)-N-(3,4-difluorophenyl)-6-methyl-2,3-dihydro-1H-pyrrolizine-5-carboxamide], 912 min.
As to `Cc1c(C(=O)C(=O)NC2(C(F)(F)F)COC2)c2n(c1C(=O)Nc1ccnc(C(F)F)c1)[C@@H]1C[C@@H]1C2` [Example 119, (1aR,6aR)—N-(2-(difluoromethyl)pyridin-4-yl)-4-methyl-5-(2-oxo-2-((3-(trifluoromethyl)oxetan-3-yl)amino)acetyl)-1,1a,6,6a-tetrahydrocyclopropa[b]pyrrolizine-3-carboxamide], the half-life is 660 min.
The figure for `Cc1c(C(=O)C(=O)NC2(C(N)=O)CC(F)(F)C2)c2n(c1C(=O)Nc1ccc(F)c(Cl)c1)CCC2` [Example 120, 7-(2-((1-carbamoyl-3,3-difluorocyclobutyl)amino)-2-oxoacetyl)-N-(3-chloro-4-fluorophenyl)-6-methyl-2,3-dihydro-1H-pyrrolizine-5-carboxamide] is 810 min.
The figure for `Cc1c(C(=O)C(=O)NC2(C(N)=O)CC(F)(F)C2)c2n(c1C(=O)Nc1ccc(F)c(F)c1)CCC2` [Example 121, 7-(2-((1-carbamoyl-3,3-difluorocyclobutyl)amino)-2-oxoacetyl)-N-(3,4-difluorophenyl)-6-methyl-2,3-dihydro-1H-pyrrolizine-5-carboxamide] is 1190 min; for `Cc1c(C(=O)C(=O)NC2(C(=O)N(C)C)CC(F)(F)C2)c2n(c1C(=O)Nc1ccc(F)c(Cl)c1)CCC2` [Example 124, N-(3-chloro-4-fluorophenyl)-7-(2-((1-(dimethylcarbamoyl)-3,3-difluorocyclobutyl)amino)-2-oxoacetyl)-6-methyl-2,3-dihydro-1H-pyrrolizine-5-carboxamide] it is 60 min; for `Cc1c(C(=O)C(=O)NC2(C(=O)N(C)C)CC(F)(F)C2)c2n(c1C(=O)Nc1ccc(F)c(F)c1)CCC2` [Example 125, N-(3,4-difluorophenyl)-7-(2-((1-(dimethylcarbamoyl)-3,3-difluorocyclobutyl)amino)-2-oxoacetyl)-6-methyl-2,3-dihydro-1H-pyrrolizine-5-carboxamide] it is 114 min.
Regarding `CNC(=O)C1(NC(=O)C(=O)c2c(C)c(C(=O)Nc3ccc(F)c(Cl)c3F)n3c2CCC3)CC(F)(F)C1` [Example 127, N-(3-chloro-2,4-difluorophenyl)-7-(2-((3,3-difluoro-1-(methylcarbamoyl)cyclobutyl)amino)-2-oxoacetyl)-6-methyl-2,3-dihydro-1H-pyrrolizine-5-carboxamide], the half-life is 912 min.
On to `CNC(=O)C1(NC(=O)C(=O)c2c(C)c(C(=O)Nc3cc(F)c(F)c(Cl)c3)n3c2CCC3)CC(F)(F)C1` [Example 129, N-(3-chloro-4,5-difluorophenyl)-7-(2-((3,3-difluoro-1-(methylcarbamoyl)cyclobutyl)amino)-2-oxoacetyl)-6-methyl-2,3-dihydro-1H-pyrrolizine-5-carboxamide], for which the half-life is 1250 min.
The figure for `Cc1c(C(=O)C(=O)NC2(C#N)CC(F)(F)C2)c2n(c1C(=O)Nc1ccc(F)c(Cl)c1)CCC2` [Example 130, N-(3-chloro-4-fluorophenyl)-7-(2-((1-cyano-3,3-difluorocyclobutyl)amino)-2-oxoacetyl)-6-methyl-2,3-dihydro-1H-pyrrolizine-5-carboxamide] is 396 min.
